Experiments:
[1] = system: NASH patients with fibrosis stage F1A or F1C; assay: MAESTRO-NASH: exploratory F1 (F1A/F1C) population, endpoints and safety
[2] = system: adults with biopsy-confirmed NASH and fibrosis stage F1B, F2, or F3; assay: MAESTRO-NASH phase 3: liver biopsy end points at week 52; type: in vivo, human
Experimental: A phase 3 trial was conducted involving adults with biopsy-confirmed NASH and a fibrosis stage of F1B, F2, or F3 (stages range from F0 [no fibrosis] to F4 [cirrhosis]).
Randomization was performed with the use of an interactive Webresponse system. Patients were stratified according to status with respect to type 2 diabetes (presence or absence) and fibrosis stage (F1, F2, or F3). Throughout the trial, patients received nutrition and exercise counseling according to current recommendations. Patients were unaware of the trial-group assignments, as were site personnel, personnel of contract research organizations, and sponsor personnel who were conducting the trial, administering the investigational product, and performing clinical assessments. Selected persons were aware of the trial-group assignments to facilitate dispensation of resmetirom or placebo. All trial personnel were unaware of the results of postbaseline tests that could reveal the trial-group assignments, including levels of total and free thyroxine (T4), sex hormone-binding globulin, and lipids as well as magnetic resonance imaging proton density fat fraction (MRI-PDFF).
Screening biopsy results were used as baseline values for histologic variables, and a second biopsy was performed at week 52. Biopsy specimens on glass slides were assessed centrally by two independent expert pathologists (the second and third authors) to determine the NAFLD activity score and fibrosis stage (according to NASH Clinical Research Network criteria). For the primary analysis, all screening or baseline biopsy specimens and week 52 biopsy specimens on glass slides were reread independently by both pathologists in large unpaired groups of screening or baseline biopsy specimens (50 to 100 slides per group, spiked with biopsy specimens obtained from patients who had screening failure) or a separate matched set of week 52 biopsy specimens (50 to 100 slides per group). The pathologists were unaware of the trial-group assignments, patient characteristics, and each other's assessments. A consensus review was conducted as a supportive analysis wherein the two pathologists read blinded (to time of biopsy and identification code) digitized images for cases in which there was disagreement on the primary read with respect to response status for the two primary end points or a reduction in fibrosis by at least two stages. Only the NAFLD activity scores or fibrosis components that determined the response for which there was disagreement between the pathologists were reread. Details are provided in the Supplementary Appendix.
The primary statistical analysis model used the Cochran-Mantel-Haenszel test to determine response with respect to the biopsy end points.

CC(C)c1cc(Oc2c(Cl)cc(-n3nc(C#N)c(=O)[nH]c3=O)cc2Cl)n[nH]c1=O [Resmetirom, 2-(3,5-dichloro-4-((5-isopropyl-6-oxo-1,6-dihydropyridazin-3-yl)oxy)phenyl)-3,5-dioxo-2,3,4,5-tetrahydro-1,2,4-triazine-6-carbonitrile]
Any Serious TEAE, % ([1]; 80 mg): (20.0) %
Any TEAEs leading to Study Discontinuation, % ([1]; 80 mg): (13.3) %
TEAE Grade 1, % ([1]; 80 mg): (20.0) %
TEAE Grade 2, % ([1]; 80 mg): (53.3) %
TEAE Grade 3, % ([1]; 80 mg): (16.7) %
Any TEAE, % ([1]; 80 mg (N = 30)): (93.3) %
Fibrosis improvement endpoint ([1]; 80 mg (N = 30)): 21.7%
Nash resolution endpoint ([1]; 80 mg (N = 30)): 38.3%
Any Serious TEAE, % ([1]; 100 mg): (23.1) %
Any TEAEs leading to Study Discontinuation, % ([1]; 100 mg): (11.5) %
TEAE Grade 1, % ([1]; 100 mg): (19.2) %
TEAE Grade 2, % ([1]; 100 mg): (46.2) %
TEAE Grade 3, % ([1]; 100 mg): (15.4) %
Any TEAE, % ([1]; 100 mg (N = 26)): (80.8) %
Fibrosis improvement endpoint ([1]; 100 mg (N = 26)): 15.4%
Nash resolution endpoint ([1]; 100 mg (N = 26)): 25.0%
Abdominal pain upper, % ([1]; AEs >5%, 80 mg): (6.7) %
Abdominal pain, % ([1]; AEs >5%, 80 mg): (3.3) %
Arthralgia, % ([1]; AEs >5%, 80 mg): (20.0) %
Back pain, % ([1]; AEs >5%, 80 mg): (13.3) %
Constipation, % ([1]; AEs >5%, 80 mg): (13.3) %
Diarrhea, % ([1]; AEs >5%, 80 mg): (26.7) %
Dizziness, % ([1]; AEs >5%, 80 mg): (6.7) %
Fatigue, % ([1]; AEs >5%, 80 mg): (10.0) %
Headache, % ([1]; AEs >5%, 80 mg): (13.3) %
Hypertension (AE), % ([1]; AEs >5%, 80 mg): (3.3) %
Nausea, % ([1]; AEs >5%, 80 mg): (16.7) %
Pruritus, % ([1]; AEs >5%, 80 mg): (6.7) %
Pyrexia, % ([1]; AEs >5%, 80 mg): (6.7) %
Rash, % ([1]; AEs >5%, 80 mg): (10.0) %
Type 2 diabetes mellitus (AE), % ([1]; AEs >5%, 80 mg): (3.3) %
Urinary tract infection, % ([1]; AEs >5%, 80 mg): (6.7) %
Vomiting, % ([1]; AEs >5%, 80 mg): (3.3) %
Weight decreased, % ([1]; AEs >5%, 80 mg): (3.3) %
Abdominal pain upper, % ([1]; AEs >5%, 100 mg): (3.8) %
Abdominal pain, % ([1]; AEs >5%, 100 mg): (7.7) %
Arthralgia, % ([1]; AEs >5%, 100 mg): (7.7) %
Back pain, % ([1]; AEs >5%, 100 mg): (11.5) %
Constipation, % ([1]; AEs >5%, 100 mg): (7.7) %
Cough, % ([1]; AEs >5%, 100 mg): (3.8) %
Diarrhea, % ([1]; AEs >5%, 100 mg): (19.2) %
Dizziness, % ([1]; AEs >5%, 100 mg): (7.7) %
Fatigue, % ([1]; AEs >5%, 100 mg): (7.7) %
Nausea, % ([1]; AEs >5%, 100 mg): (7.7) %
Osteopenia, % ([1]; AEs >5%, 100 mg): (7.7) %
Pruritus, % ([1]; AEs >5%, 100 mg): (15.4) %
Rash, % ([1]; AEs >5%, 100 mg): (7.7) %
Type 2 diabetes mellitus (AE), % ([1]; AEs >5%, 100 mg): (3.8) %
Urinary tract infection, % ([1]; AEs >5%, 100 mg): (15.4) %
Vomiting, % ([1]; AEs >5%, 100 mg): (11.5) %
Weight decreased, % ([1]; AEs >5%, 100 mg): (11.5) %
Both NASH resolution and fibrosis improvement by ≥1 stage, difference from placebo ([2]; 80 mg): 9.5 percentage points
Both NASH resolution and fibrosis improvement by ≥1 stage, percent with response ([2]; 80 mg): 14.2%
Fibrosis improvement by ≥1 stage with no worsening of NAFLD activity score, difference from placebo ([2]; 80 mg): 10.2 percentage points
Fibrosis improvement by ≥1 stage with no worsening of NAFLD activity score, percent with response ([2]; 80 mg): 24.2%
Improvement in each component of NAFLD activity score, difference from placebo ([2]; 80 mg): 16.1 percentage points
Improvement in each component of NAFLD activity score, percent with response ([2]; 80 mg): 23.3%
Improvement in fibrosis by ≥2 stages, difference from placebo ([2]; 80 mg): 5.6 percentage points
Improvement in fibrosis by ≥2 stages, percent with response ([2]; 80 mg): 8.3%
NASH resolution with no worsening of fibrosis, difference from placebo ([2]; 80 mg): 16.4 percentage points
NASH resolution with no worsening of fibrosis, percent with response ([2]; 80 mg): 25.9%
≥2-Point improvement in NAFLD activity score with improvement in fibrosis, difference from placebo ([2]; 80 mg): 10.5 percentage points
≥2-Point improvement in NAFLD activity score with improvement in fibrosis, percent with response ([2]; 80 mg): 18.8%
≥2-Point improvement in NAFLD activity score with no worsening of fibrosis, difference from placebo ([2]; 80 mg): 20.2 percentage points
≥2-Point improvement in NAFLD activity score with no worsening of fibrosis, percent with response ([2]; 80 mg): 41.3%
Both NASH resolution and fibrosis improvement by ≥1 stage, difference from placebo ([2]; 100 mg): 11.6 percentage points
Both NASH resolution and fibrosis improvement by ≥1 stage, percent with response ([2]; 100 mg): 16.0%
Fibrosis improvement by ≥1 stage with no worsening of NAFLD activity score, difference from placebo ([2]; 100 mg): 11.8 percentage points
Fibrosis improvement by ≥1 stage with no worsening of NAFLD activity score, percent with response ([2]; 100 mg): 25.9%
Improvement in each component of NAFLD activity score, difference from placebo ([2]; 100 mg): 20.9 percentage points
Improvement in each component of NAFLD activity score, percent with response ([2]; 100 mg): 27.9%
Improvement in fibrosis by ≥2 stages, difference from placebo ([2]; 100 mg): 7.4 percentage points
Improvement in fibrosis by ≥2 stages, percent with response ([2]; 100 mg): 10.1%
NASH resolution with no worsening of fibrosis, difference from placebo ([2]; 100 mg): 20.7 percentage points
NASH resolution with no worsening of fibrosis, percent with response ([2]; 100 mg): 29.9%
≥2-Point improvement in NAFLD activity score with improvement in fibrosis, difference from placebo ([2]; 100 mg): 13.0 percentage points
≥2-Point improvement in NAFLD activity score with improvement in fibrosis, percent with response ([2]; 100 mg): 21.2%
≥2-Point improvement in NAFLD activity score with no worsening of fibrosis, difference from placebo ([2]; 100 mg): 23.8 percentage points
≥2-Point improvement in NAFLD activity score with no worsening of fibrosis, percent with response ([2]; 100 mg): 44.9%

Source: patent US12377104B1, “Methods for treating a fatty liver disease” (Madrigal Pharmaceuticals, Inc., priority 2024, dated 2025)
